The subject of assay [1] is PC-3M-luc prostate cancer cells. The assay is described as follows: Cell viability assay (MTS) PC-3M-luc. Type of assay: cell-based. As to conditions: 72 h. An outline of the steps:
(§1)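 HGC27 and PC-3M-luc cells (2000/well) were read by MTS after compound in 0.5% DMSO. W1 (10^4/well) and MCF-7 (2 × 10^3/well) were given half-log dilutions for 72 h, then MTT for 1 h, with absorbance at 570 nm minus 690 nm. Viability was fitted to a four-parameter logistic curve.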

In assay [2] the test system is MCF-7 breast cancer cells. The assay is described as follows: Cell viability assay (MTT) MCF-7. Type of assay: cell-based. The conditions noted are these: Homo sapiens, MCF7, 72 h. An outline of the steps: as §1
Assay [3] addresses T1, HDAC6 (Homo sapiens, UniProt Q9UBN7).
T1 sequence (Q9UBN7 1-1215): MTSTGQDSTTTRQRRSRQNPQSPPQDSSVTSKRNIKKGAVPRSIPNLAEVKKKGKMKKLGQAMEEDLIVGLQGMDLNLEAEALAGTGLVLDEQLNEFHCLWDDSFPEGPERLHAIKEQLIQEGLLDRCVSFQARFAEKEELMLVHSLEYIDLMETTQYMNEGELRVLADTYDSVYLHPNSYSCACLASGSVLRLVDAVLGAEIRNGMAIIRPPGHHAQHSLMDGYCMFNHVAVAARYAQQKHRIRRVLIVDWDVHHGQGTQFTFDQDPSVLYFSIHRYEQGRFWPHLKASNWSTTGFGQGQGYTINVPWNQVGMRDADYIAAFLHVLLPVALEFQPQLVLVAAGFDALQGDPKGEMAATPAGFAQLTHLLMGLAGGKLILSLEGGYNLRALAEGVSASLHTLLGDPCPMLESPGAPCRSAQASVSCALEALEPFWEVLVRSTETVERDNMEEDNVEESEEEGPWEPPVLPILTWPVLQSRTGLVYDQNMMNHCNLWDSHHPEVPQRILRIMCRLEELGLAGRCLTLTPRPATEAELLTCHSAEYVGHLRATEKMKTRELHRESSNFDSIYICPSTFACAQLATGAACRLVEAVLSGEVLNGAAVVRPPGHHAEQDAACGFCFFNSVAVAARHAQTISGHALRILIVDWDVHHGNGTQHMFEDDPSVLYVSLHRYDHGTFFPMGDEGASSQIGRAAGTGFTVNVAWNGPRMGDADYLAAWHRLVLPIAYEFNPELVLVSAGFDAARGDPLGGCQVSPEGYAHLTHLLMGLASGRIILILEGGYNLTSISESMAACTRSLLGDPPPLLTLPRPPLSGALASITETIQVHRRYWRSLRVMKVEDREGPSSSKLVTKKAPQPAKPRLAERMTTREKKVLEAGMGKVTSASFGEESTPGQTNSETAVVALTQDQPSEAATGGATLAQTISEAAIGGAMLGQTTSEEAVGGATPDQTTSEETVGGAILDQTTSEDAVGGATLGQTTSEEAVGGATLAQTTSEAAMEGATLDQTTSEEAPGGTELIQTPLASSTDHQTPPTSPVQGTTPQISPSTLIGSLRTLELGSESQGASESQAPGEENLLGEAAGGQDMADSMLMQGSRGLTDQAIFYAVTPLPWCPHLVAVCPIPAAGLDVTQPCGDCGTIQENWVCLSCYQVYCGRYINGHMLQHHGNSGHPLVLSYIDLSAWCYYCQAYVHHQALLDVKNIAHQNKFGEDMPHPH
The assay is described as follows: HDAC6 in vitro deacetylation assay (ZMAL). Type of assay: biochemical. The arrangement: purchased BPS Bioscience 50006.

The target of assay [4] is T2, Sirt3 (Homo sapiens, UniProt Q9NTG7).
T2 construct: the respective sirtuin (Sirt1_134–747, Sirt2_56–356, or Sirt3_118–395) was mixed with; made in house; host or cells: Escherichia coli BL21 Star (DE3)
T2 sequence (Q9NTG7 118-395): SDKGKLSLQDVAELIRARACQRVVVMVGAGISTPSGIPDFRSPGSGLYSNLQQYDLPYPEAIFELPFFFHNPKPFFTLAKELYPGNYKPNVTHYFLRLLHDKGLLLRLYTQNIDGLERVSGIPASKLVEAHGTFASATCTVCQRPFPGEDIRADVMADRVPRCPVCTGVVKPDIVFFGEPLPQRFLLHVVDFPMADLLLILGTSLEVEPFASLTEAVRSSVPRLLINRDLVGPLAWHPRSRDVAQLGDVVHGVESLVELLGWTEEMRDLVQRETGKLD
The assay is described as follows: Sirt3 in vitro deacetylation assay (ZMAL). Type of assay: biochemical.

Assay [5] deals with W1 ovarian cancer cells. The assay is described as follows: Cell viability assay (MTT) W1. Type of assay: cell-based. The conditions noted are these: 72 h. An outline of the steps: as §1
Assay [6] has as its target T3, Sirt2 (Homo sapiens, UniProt Q8IXJ6).
T3 construct: the respective sirtuin (Sirt1_134–747, Sirt2_56–356, or Sirt3_118–395) was mixed with; made in house; host or cells: Escherichia coli BL21 Star (DE3)
T3 sequence (Q8IXJ6 56-356): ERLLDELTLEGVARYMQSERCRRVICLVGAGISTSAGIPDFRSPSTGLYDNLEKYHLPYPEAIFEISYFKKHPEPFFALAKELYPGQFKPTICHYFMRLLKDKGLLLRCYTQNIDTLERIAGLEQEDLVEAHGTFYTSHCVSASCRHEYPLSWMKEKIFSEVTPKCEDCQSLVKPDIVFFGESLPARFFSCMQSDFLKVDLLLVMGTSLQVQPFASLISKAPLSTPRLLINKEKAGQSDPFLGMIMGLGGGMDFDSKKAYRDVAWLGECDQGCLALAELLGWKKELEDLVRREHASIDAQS
The assay is described as follows: Sirt2 in vitro deacetylation assay (ZMAL, trypsin-based fluorescence). As to conditions: deacetylation, mean ± SD. Type of assay: biochemical.

Assay [7] addresses T4, HDAC3/NcoR2 (Homo sapiens, UniProt O15379).
T4 construct: purchased BPS Bioscience 50003
The assay is described as follows: HDAC3 in vitro deacetylation assay (ZMAL). Type of assay: biochemical. The conditions noted are these: mean ± SD.

In assay [8] the target is HDAC5 (Homo sapiens, UniProt Q9UQL6). The assay is described as follows: HDAC5 continuous fluorescence deacylation assay. Type of assay: biochemical.
HDAC5, sequence (Q9UQL6 whole entry, species assumed): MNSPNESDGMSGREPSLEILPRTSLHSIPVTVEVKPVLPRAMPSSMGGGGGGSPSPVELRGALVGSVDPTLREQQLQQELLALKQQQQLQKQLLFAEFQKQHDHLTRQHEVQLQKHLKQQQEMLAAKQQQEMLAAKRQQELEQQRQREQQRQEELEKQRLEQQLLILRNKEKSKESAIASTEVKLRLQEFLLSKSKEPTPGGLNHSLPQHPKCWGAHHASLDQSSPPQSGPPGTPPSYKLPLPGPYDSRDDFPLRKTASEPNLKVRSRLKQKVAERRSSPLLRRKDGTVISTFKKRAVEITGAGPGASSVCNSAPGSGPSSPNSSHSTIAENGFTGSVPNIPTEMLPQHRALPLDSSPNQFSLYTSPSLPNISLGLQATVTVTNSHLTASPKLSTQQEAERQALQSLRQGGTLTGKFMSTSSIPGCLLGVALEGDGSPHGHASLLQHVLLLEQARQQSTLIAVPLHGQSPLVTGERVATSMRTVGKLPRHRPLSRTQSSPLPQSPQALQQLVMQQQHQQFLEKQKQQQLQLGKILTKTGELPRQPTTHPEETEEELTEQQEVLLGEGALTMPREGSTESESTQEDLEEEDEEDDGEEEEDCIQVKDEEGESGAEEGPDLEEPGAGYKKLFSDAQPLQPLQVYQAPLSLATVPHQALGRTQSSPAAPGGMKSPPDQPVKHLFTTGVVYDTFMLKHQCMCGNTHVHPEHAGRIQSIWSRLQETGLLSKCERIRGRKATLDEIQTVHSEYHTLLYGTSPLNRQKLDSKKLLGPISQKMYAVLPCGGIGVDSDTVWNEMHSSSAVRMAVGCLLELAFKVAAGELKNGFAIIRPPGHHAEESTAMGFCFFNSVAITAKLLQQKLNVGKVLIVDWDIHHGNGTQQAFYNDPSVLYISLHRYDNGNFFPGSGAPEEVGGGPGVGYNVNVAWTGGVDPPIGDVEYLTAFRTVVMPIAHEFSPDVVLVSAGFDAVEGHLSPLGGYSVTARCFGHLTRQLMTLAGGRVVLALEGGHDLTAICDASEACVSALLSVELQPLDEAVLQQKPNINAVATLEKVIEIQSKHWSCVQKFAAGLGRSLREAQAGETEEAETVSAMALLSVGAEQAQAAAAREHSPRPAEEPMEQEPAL

T4 sequence (O15379 whole entry): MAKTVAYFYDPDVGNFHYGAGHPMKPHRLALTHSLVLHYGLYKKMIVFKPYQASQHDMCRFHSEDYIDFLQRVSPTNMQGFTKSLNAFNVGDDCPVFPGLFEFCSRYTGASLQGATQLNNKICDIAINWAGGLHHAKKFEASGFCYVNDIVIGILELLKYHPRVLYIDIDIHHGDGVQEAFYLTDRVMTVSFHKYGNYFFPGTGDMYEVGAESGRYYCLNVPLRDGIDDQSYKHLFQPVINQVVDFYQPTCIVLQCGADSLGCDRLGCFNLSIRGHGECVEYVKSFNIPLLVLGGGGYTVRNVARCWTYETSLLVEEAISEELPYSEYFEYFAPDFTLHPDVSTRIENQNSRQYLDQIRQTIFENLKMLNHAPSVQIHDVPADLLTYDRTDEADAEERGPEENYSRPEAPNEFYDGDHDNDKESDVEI
T4 sequence (Q9Y618 395-489 partner limits assumed): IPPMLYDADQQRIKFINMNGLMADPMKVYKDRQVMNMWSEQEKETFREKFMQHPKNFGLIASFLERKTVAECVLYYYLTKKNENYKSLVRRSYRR

For the compound `Cc1cc(C)nc(SCC(=O)Nc2ncc(Cc3cccc(OCc4cn(Cc5ccccc5)nn4)c3)s2)n1` [Compound 4, SirReal1.1, reference compound], the PC-3M-luc cellular effect result in assay [1] (@ 50 μM) was “ni ^b (ni = no inhibition (cellular effect <20% @ 50 μM))”. Moreover, the inhibition at 100 µM in assay [2] (@ 0.1 mM, read-out: MCF-7 percentual inhibition) worked out at 3%; in assay [5] (@ 0.1 mM, read-out: W1 percentual inhibition), 3%. Further, in assay [3] (@ 10 μM, read-out: HDAC6 percentual inhibition), the inhibition at 10 µM was determined as 18%. Moreover, the inhibition at 20 µM in assay [4] was under 15%. Besides, in assay [6], the IC50 came out at 220 ± 10 nM.
Regarding `CCCCN(Cc1ccc(C(=O)NO)cc1)C(=O)CCCCn1cc(COc2cccc(Cc3cnc(NC(=O)CSc4nc(C)cc(C)n4)s3)c2)nn1` [Compound 33, 4-((N-Butyl-5-(4-((3-((2-(2-((4,6-dimethylpyrimidin-2-yl)thio)acetamido)thiazol-5-yl)methyl)phenoxy)methyl)-1H-1,2,3-triazol-1-yl)pentanamido)methyl)-N-hydroxybenzamide], the EC50 in assay [1] (PC-3M-luc, read-out: PC-3M-luc cell viability EC50, MTS, mean ± SD) is 30100 ± 3800 nM; in assay [2] (MTT, mean ± SD), 21100 ± 6700 nM; in assay [5] (MTT, mean ± SD), 19200 ± 1300 nM. The IC50 in assay [7] was 2500 ± 200 nM; in assay [3] (deacetylation, mean ± SD), 43 ± 3 nM; in assay [8] it was over 6000 nM; in assay [6], 320 ± 110 nM. The inhibition at 20 µM in assay [4] is under 15%; in assay [8] (@ 20 μM, read-out: HDAC5 percentual inhibition) it was 57%. Besides, the inhibition at 6 µM in assay [8] (@ 6 µM, read-out: HDAC5 percentual inhibition) was 18%.

For the origin of these results see PMC10641818, “Development of First-in-Class Dual Sirt2/HDAC6 Inhibitors as Molecular Tools for Dual Inhibition of Tubulin Deacetylation” (Journal of Medicinal Chemistry, 2023).
